Measured values: patent publication US10561638B2, “Methods for treating dependence” (Biotie Therapies, Inc., priority 2007, dated 2020)
“Also recorded” adds a separate entry of the source.

Tested on: tissue noradrenaline and dopamine content
Experiment: Tissue catecholamines in SHRs after three oral doses 12 h apart
Format: in vivo, spontaneously hypertensive rats
Conditions: for increase in DA/NE ratio / nepicastat compared with SKF-102698, catecholamine changes: 30 mg/kg; for maximal increase in DA/NE ratio: 100 mg/kg; for decrease in noradrenaline / increase in dopamine: 100 mg/kg po x3
Experimental: Male SHRs (15-16 weeks old, Charles River, Wilmington, Mass., USA) were used in in vivo studies. On the day of the study, animals were weighed and randomly assigned to be dosed with either vehicle (control) or the appropriate dose of nepicastat (3, 10, 30 or 100 mg·kg^−1, po) or Compound B (30 mg·kg^−1, po) three consecutive times, twelve hours apart. At six hours after the third dose, the rats were anaesthetized with halothane, decapitated and tissues (cerebral cortex, mesenteric artery and left ventricle) were rapidly harvested, weighed, placed in iced perchloric acid (0.4 M), frozen in liquid nitrogen and stored at −70° C. until subsequent analysis. To quantify noradrenaline and dopamine concentrations, tissues were homogenized by brief sonication and centrifuged at 13,000 rpm for 30 minutes at 4° C. The supernatant, spiked with 3,4-dihydroxybenzylamine (internal standard), was assayed for noradrenaline and dopamine by HPLC using electrochemical detection.
Nepicastat was used in in vivo biochemical studies to study the effects in spontaneously hypertensive rats (SHRs) and normal beagle dogs. On the day of the study, the animals were weighed and randomly assigned to receive either placebo (vehicle) or the appropriate dose of nepicastat. Each rat was dosed orally three times, 12 h apart, beginning in the morning. At 6 h after the third dose, the rats were anesthetized with halothane, decapitated, and the tissues (cerebral cortex, mesenteric artery and left ventricle) were rapidly harvested, weighed, placed in iced 0.4 M perchloric acid, frozen in liquid nitrogen and stored at −70° C. until analysis. Tissue NE and DA concentrations were assayed by HPLC using electrochemical detection. Male beagle dogs (10-16 kg, Marshall Farms USA Inc, North Rose, N.Y.) were used in the study. On the day of the study, dogs were randomly assigned to receive either placebo (empty capsule) or the appropriate dose of nepicastat. Each dog was dosed twice a day for 4.5 days. 6 h after the first dose on day 5, the dogs were euthanized with pentobarbital and the tissues (cerebral cortex. renal artery, left ventricle) harvested, weighed, placed in iced 0.4 M perchloric acid, frozen in liquid nitrogen and stored at −70° C. until analysis. Tissue NE and DA concentrations were assayed by HPLC using electrochemical detection.
Fifteen to sixteen week old male spontaneously hypertensive rats (SHRs) (Charles River Labs) were allowed food and water ad libitum. Animals were weighed and randomly assigned to one of the following treatment groups: 1) distilled water vehicle (dH2O), or nepicastat at 3, 10, 30, and 100 mg/kg, 2) Compound B at 30 mg/kg in distilled water, or 3) PEG 400:dH2O vehicle or SKF-102698 at 30 mg/kg. Each rat was dosed orally (p.o., using a gavage needle) three times 12 hours apart, beginning in the morning. At six hours after the third dose rats were anesthetized with halothane, decapitated, and the cortex, mesenteric artery, and left ventricle were rapidly harvested, weighed, placed in iced 0.4 M perchioric acid, frozen in liquid nitrogen, and stored at −70° C. Tissue dopamine and norepinephrine concentrations were assayed by high performance liquid chromatography and electrochemical detection.
Four series of statistical analyses were performed. The first series compared the rats treated with various doses of nepicastat, and Compound B at 30 mg/kg to the vehicle control animals. A nonparametric one-way analysis of variance (ANOVA) with factor Dose and blocking factor Day was performed for each tissue and strain separately. […] Pairwise analysis between treated and controls at each dose were carried out using Dunnett's test to control the experiment-wise error rate. The second statistical test compared SKF-102698 to the PEG-dH2O vehicle treated group using a nonparametric t-test. The third statistical test compared Compound B to nepicastat at doses of 30 mg/kg using a nonparametric t-test.

[1] = cerebral cortex, 30 and 100 mg/kg
[2] = left ventricle and mesenteric artery
[3] = left ventricle, 3, 10, 30 and 100 mg/kg

## Fc1cc(F)cc(Cn2cc[nH]c2=S)c1 [SKF-102698, reference compound]
Cerebral cortex
  increase in DA/NE ratio: 2.7 fold
Cerebral cortex, 30 mg/kg x3
  dopamine vs vehicle: significantly greater (p<0.01) than vehicle
  dopamine/norepinephrine ratio vs vehicle: significantly (p<0.01) greater than vehicle
  norepinephrine vs vehicle: significantly lower than vehicle
Left ventricle
  increase in DA/NE ratio: 3.5 fold
Left ventricle, 30 mg/kg x3
  dopamine vs vehicle: significantly greater (p<0.01) than vehicle
  dopamine/norepinephrine ratio vs vehicle: significantly (p<0.05) greater than vehicle
  norepinephrine vs vehicle: not different from vehicle
Mesenteric artery
  increase in DA/NE ratio: 5.5 fold
Mesenteric artery, 30 mg/kg x3
  dopamine vs vehicle: significantly greater than vehicle
  dopamine/norepinephrine ratio vs vehicle: significantly greater than vehicle
  norepinephrine vs vehicle: significantly lower than vehicle

## Cl.NCc1c[nH]c(=S)n1[C@H]1CCc2c(F)cc(F)cc2C1 [nepicastat, (S)-5-Aminomethyl-1-(5,7-difluoro-1,2,3,4-tetrahydronaphth-2-yl)-2,3-dihydro-2-thioxo-1H-imidazole hydrochloride]
30 mg/kg po x3, mesenteric artery and/or left ventricle, hydrochloride
  nepicastat compared with the R-enantiomer (Compound B), catecholamine changes: significantly greater changes in catecholamine content; also recorded: significantly more potent then the R enantiomer; also recorded: significantly more effective (p<0.01) than Compound B
Cerebral cortex
  increase in DA/NE ratio: 1.5 fold
  maximal increase in DA/NE ratio: 3.2 fold
  decrease in noradrenaline: 42%
  increase in dopamine: 86%
Cerebral cortex, 30 mg/kg x3
  norepinephrine levels, nepicastat compared to Compound B: significantly lower
Cerebral cortex, hydrochloride
  nepicastat compared with SKF-102698, catecholamine changes: significantly less effects than SKF-102698; also recorded: greater for SKF-102698 than for nepicastat; also recorded: less effective in the cerebral cortex
[1]
  dopamine concentration vs vehicle: significantly (p<0.05) greater
  dopamine/norepinephrine ratio vs vehicle: significantly (p<0.05) greater
  norepinephrine concentration vs vehicle: significantly (p<0.05) lower
[2]
  dose for significant decrease in norepinephrine: 10 mg/kg
  dose for significant increase in dopamine: 3.0 mg/kg
  dose for significant increase in dopamine/norepinephrine ratio: 3.0 mg/kg
Left ventricle and/or mesenteric artery, hydrochloride
  nepicastat compared with SKF-102698, catecholamine changes: significantly more potent than the DBH inhibitor SKF-102698; also recorded: greater for nepicastat than for SKF-102698; also recorded: more effective than SKF-102698
Left ventricle
  increase in DA/NE ratio: 7.5 fold
  maximal increase in DA/NE ratio: 11 fold
  decrease in noradrenaline: 35%
  increase in dopamine: 800%
[3]
  dopamine concentration vs vehicle: significantly (p<0.05) greater than vehicle
  dopamine/norepinephrine ratio vs vehicle: significantly (p<0.05) greater than vehicle
Left ventricle, 10, 30 and 100 mg/kg
  norepinephrine concentration vs vehicle: significantly (p<0.05) lower than vehicle
Mesenteric artery and left ventricle
  doses at which catecholamine changes attained significance (p<0.05): ≥ 3 mg/kg
Mesenteric artery
  increase in DA/NE ratio: 8.3 fold
  maximal increase in DA/NE ratio: 14 fold
  decrease in noradrenaline: 47%
  increase in dopamine: 820%
Mesenteric artery, 3, 10, 30 and 100 mg/kg
  dopamine concentration vs vehicle: significantly (p<0.05) greater than vehicle
Mesenteric artery, 10, 30 and 100 mg/kg
  norepinephrine concentration vs vehicle: not significantly less (p>0.05)
Mesenteric artery, all doses
  dopamine/norepinephrine ratio vs vehicle: significantly (p<0.05) greater than vehicle
